Laboratory results from patent US4895842A, “Phenylalanine derivative and proteinase inhibitor” (Shosuke Okamoto, priority 1985, dated 1990).
Where a name gives a salt, the structure may show the parent alone.

Legend:
[1] = biological target: human plasma kallikrein (Homo sapiens, UniProt P03952); assay: Anti-plasma kallikrein activity: inhibition of S-2302 decomposition; format: biochemical; settings: Table 2; S-2302 substrate, pH 7.8, 37° C.; read-out: Plasma Kallikrein S-2302 (I50)
[2] = biological target: T1, human plasmin (Homo sapiens, UniProt P00747); assay: biochemical; settings: read-out: Plasmin S-2251 (I50)
Description: An inhibitor sample is dissolved in a 0.05M Tris-hydrochloric acid buffer solution (pH=7.4) to make the total volume of 400 μl. […] Then, 50 μl of a 0.2 casein unit/ml human plasmin is added and the mixture is incubated at a temperature of 37° C. for 4 minutes. Thereafter, the reaction is stopped by adding 50 μl of 50% acetic acid.
Thus, the concentration I50 (μmol) of the inhibitor sample, at which the absorbance is one half (i.e., 1/2) of that obtained in the absence of the inhibitor, is determined.

[3] = biological target: human urokinase (Homo sapiens, UniProt P00749); assay: biochemical; settings: Table 2; S-2444 substrate, pH 8.8, 37° C.; read-out: Urokinase S-2444 (I50)
Description: Determination of inhibition activity for S-2444 decomposition
An inhibitor sample is dissolved in a 0.05M Tris-hydrochloric acid buffer solution (pH=8.8) to make the total volume to 400 μl. To this solution, 50 μl of a 1 mM S-2444 solution is added and the mixture is incubated at a temperature of 37° C. for 5 minutes in a constant temperature bath. Then, 50 μl of a 500 unit/ml human urokinase is added and the mixture is incubated at a temperature of 37° C. for 5 minutes. Thereafter, 50 μl of 50% acetic acid is added to terminate the reaction. The absorbance of the p-nitroaniline formed in the reaction mixture is measured at 405 nm. Thus, the concentration I50 (μmol) of the inhibitor sample, at which the absorbance is one half (i.e., 1/2) of that obtained in the absence of the inhibitor sample, is determined.

[4] = biological target: T1, human plasmin; assay: Antiplasmin activity: inhibition of fibrin decomposition; format: biochemical; settings: Table 2; concentration at which fibrin dissolution time is extended twice, pH 7.4, 37° C.; read-out: Plasmin Fibrin (I50)
Description: (i) Determination of inhibition activity for fibrin decomposition
An inhibitor sample is dissolved in a 0.18M borate-physiological salt buffer solution (pH=7.4) to make the total volume to 600 μl. To this buffer solution, 200 μl of a 0.2% bovine fibrinogen, 100 μl of a 0.3 casein unit/ml human plasmin solution, and 100 μl of a 50 unit/ml bovine thrombin solution, all dissolved in the above-mentioned buffer, are added at a temperature of 37° C. in a constant temperature bath. Then, the dissolution time of the fibrin mass formed above is determined.

[5] = biological target: T2, bovine thrombin (Bos taurus, UniProt P00735); assay: Antithrombin activity: inhibition of S-2238 decomposition; format: biochemical
Description: (ii) Determination of inhibition activity for S-2238 decomposition
An inhibitor sample is dissolved in a 0.05M Tris-hydrochloric acid buffer solution (pH=8.3) to make a total volume of 400 μl. To this solution, 50 μl of a 0.2 mM S-2238 solution is added and the mixture is incubated at a temperature of 37° C. for 5 minutes in a constant temperature bath. Then, 50 μl of a 0.2 unit/ml bovine thrombin solution is added thereto and the absorbance, at 405 nm, of the p-nitroaniline formed per minute is determined at a temperature of 37° C. by using the so-called initial velocity method. Thus, the concentration I50 (μmol) of the inhibitor sample at which the absorbance is one half (i.e., 1/2) of that obtained in the absence of the inhibitor sample, is determined.

[6] = biological target: T3, bovine trypsin (Bos taurus, UniProt P00760); assay: Antitrypsin activity: inhibition of S-2238 decomposition; format: biochemical; settings: Table 2; S-2238 substrate, pH 8.1, 37° C.; read-out: Trypsin S-2238 (I50)
T3 sequence (P00760 24-246): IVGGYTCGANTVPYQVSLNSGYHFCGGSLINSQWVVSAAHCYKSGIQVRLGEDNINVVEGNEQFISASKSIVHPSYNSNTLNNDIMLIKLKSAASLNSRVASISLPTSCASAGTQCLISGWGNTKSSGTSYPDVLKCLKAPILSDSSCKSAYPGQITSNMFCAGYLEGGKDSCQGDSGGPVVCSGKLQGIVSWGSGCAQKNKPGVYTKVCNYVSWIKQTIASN
Description: Determination of inhibition activity against S-2238 decomposition
An inhibitor sample is dissolved in a 0.05M Tris-imidazole buffer solution (pH=8.1) and 125 μl of a 1 mM S-2238 solution is added to make the total volume to 1.20 ml. The mixture is incubated at a temperature of 37° C. for 5 minutes in a constant temperature bath. To this mixture, 0.05 ml of bovine trypsin is added and the absorbance, at 405 nm, of the p-nitroaniline formed per minute is determined at a temperature of 37° C. by using the so-called initial velocity method. Thus, the concentration I50 (μmol) of the inhibitor sample, at which the absorbance is one half (i.e., 1/2) of that obtained in the absence of the inhibitor sample, is determined.

[7] = biological target: T2, bovine thrombin; assay: Antithrombin activity: inhibition of fibrin formation from fibrinogen; format: biochemical
Description: (i) Determination of inhibition activity against fibrin formation
An inhibitor sample is dissolved in a 0.18M borate-physiological salt buffer solution (pH=7.4) to make the total volume to 500 μl. To this solution, 400 μl of a 0.2% bovine fibrinogen solution and 100 μl of a 4 unit/ml bovine thrombin solution are added at a temperature of 37° C. in a constant temperature bath. Thus, a coagulation time is determined. The inhibitor concentration I50 (μmol), at which the coagulation time obtained in the absence of the inhibitor is extended twice, is determined.

[8] = Table 2, S-2238 substrate, pH 8.3, 37° C., read-out: Thrombin S-2238 (I50)
[9] = Table 2, 50% inhibition concentration, S-2251 substrate, pH 7.4, 37° C.
[10] = read-out: Thrombin Fibrinogen (I50), Table 2, concentration at which coagulation time of bovine fibrinogen is extended twice, pH 7.4, 37° C.

T1 sequence (P00747 581-810 limits assumed): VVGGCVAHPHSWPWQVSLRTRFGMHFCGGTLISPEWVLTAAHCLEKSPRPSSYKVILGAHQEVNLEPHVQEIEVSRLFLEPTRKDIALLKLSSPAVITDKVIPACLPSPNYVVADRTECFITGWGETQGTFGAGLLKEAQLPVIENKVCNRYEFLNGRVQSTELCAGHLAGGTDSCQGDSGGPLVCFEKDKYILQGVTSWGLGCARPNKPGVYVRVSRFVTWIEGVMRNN
T1 sequence (P00747 97-580 partner limits assumed): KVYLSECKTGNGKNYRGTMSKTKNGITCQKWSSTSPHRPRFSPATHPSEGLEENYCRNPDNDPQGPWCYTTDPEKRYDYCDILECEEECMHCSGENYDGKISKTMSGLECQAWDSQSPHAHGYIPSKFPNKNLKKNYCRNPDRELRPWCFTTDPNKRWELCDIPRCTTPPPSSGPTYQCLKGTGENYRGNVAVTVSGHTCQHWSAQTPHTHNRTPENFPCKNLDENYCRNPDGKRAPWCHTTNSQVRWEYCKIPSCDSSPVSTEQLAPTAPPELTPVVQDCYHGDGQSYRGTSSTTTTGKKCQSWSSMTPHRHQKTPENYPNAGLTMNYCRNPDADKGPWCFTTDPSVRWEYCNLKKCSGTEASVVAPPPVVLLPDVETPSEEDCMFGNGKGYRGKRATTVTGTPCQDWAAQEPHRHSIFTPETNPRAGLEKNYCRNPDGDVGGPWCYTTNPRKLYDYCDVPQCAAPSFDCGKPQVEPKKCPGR
Chain of human plasma kallikrein (P03952 391-638 limits assumed): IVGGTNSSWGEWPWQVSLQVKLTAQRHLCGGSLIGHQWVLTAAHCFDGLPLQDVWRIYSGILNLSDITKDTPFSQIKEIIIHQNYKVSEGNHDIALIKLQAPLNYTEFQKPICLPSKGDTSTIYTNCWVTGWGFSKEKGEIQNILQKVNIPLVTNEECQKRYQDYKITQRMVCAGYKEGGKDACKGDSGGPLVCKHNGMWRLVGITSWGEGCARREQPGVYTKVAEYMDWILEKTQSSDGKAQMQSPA
Chain of human plasma kallikrein (P03952 20-390 partner limits assumed): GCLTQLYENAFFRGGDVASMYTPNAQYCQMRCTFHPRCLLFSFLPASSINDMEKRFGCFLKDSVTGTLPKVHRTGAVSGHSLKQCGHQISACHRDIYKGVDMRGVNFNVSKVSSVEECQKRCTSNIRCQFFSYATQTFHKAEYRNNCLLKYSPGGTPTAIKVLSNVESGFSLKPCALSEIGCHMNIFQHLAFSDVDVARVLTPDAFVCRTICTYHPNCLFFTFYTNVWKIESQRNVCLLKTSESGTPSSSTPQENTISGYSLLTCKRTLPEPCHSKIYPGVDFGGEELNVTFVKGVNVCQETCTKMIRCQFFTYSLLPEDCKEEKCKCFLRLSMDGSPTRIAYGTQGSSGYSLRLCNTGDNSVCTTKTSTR

Compound | IC50 [1] [µM] | IC50 [2] [µM] | IC50 [3] [µM] | IC50 [4] [µM] | IC50 [5, 8] [µM] | IC50 [6] [µM] | IC50 [7] [µM] | IC50 [2, 9] [µM] | IC50 [7, 10] [µM] | IC50 [5] [µM]
NC[C@H]1CC[C@H](C(=O)N[C@@H](Cc2ccc(OCc3ccccc3)cc2)C(=O)Nc2ccc(S(N)(=O)=O)cc2)CC1 [Compound No. 47, N-(trans-4-aminomethylcyclohexylcarbonyl)-4-benzyloxy-L-phenylalanine 4-sulfamoylanilide hydrochloride] | 4.5 | 8.9 | 130 | 1 | > 400 | 7.5 | > 200 | – | – | –
CC(=O)c1ccc(NC(=O)[C@H](Cc2ccc(OCc3ccccc3)cc2)NC(=O)[C@H]2CC[C@H](CN)CC2)cc1 [Compound No. 3, N-(trans-4-aminomethylcyclohexylcarbonyl)-4-benzyloxy-L-phenylalanine 4-acetylanilide] | 0.63 | 1.8 | 31 | 0.4 | > 200 | 0.77 | > 100 | – | – | –
Cc1ccc(NC(=O)[C@H](Cc2ccc(OCc3ccccc3)cc2)NC(=O)[C@H]2CC[C@H](CN)CC2)cc1C [compound 58] | 2.8 | 3.4 | > 150 | 0.72 | > 125 | 1.3 | > 50 | – | – | –
NC[C@H]1CC[C@H](C(=O)N[C@@H](Cc2ccc(OCc3ccccc3)cc2)C(=O)Nc2cccc([N+](=O)[O-])c2)CC1 [compound 44] | 1.2 | 3.8 | 60 | 0.95 | > 500 | 1.1 | > 100 | – | – | –
CC1CCC(NC(=O)C(Cc2ccc(OCc3cccc(Cl)c3)cc2)NC(=O)C2CCC(CN)CC2)CC1C (stereo not drawn) [compound 102] | 3.5 | 0.69 | 320 | 0.16 | > 400 | 1.3 | > 50 | – | – | –
CC(=O)c1ccc(NC(=O)C(Cc2ccc(OCc3ccccc3)cc2)NC(=O)c2ccc(CN)cc2)cc1 (stereo not drawn) [compound 118] | 3.7 | 3.4 | > 150 | 0.77 | > 50 | 3 | > 50 | – | – | –
CC(=O)c1ccc(NC(=O)[C@H](Cc2ccc(OCc3cccc(F)c3)cc2)NC(=O)[C@H]2CC[C@H](CN)CC2)cc1 [compound 56] | 0.76 | 1.9 | 46 | 0.29 | 500 | 1.2 | > 100 | – | – | –
CCOC(=O)C1CCCC(NC(=O)[C@H](Cc2ccc(OCc3cccc(Cl)c3)cc2)NC(=O)c2ccc(CN)cc2)C1 (stereo partly drawn) [compound 72] | 25 | – | > 200 | 0.62 | > 50 | 0.95 | – | 2.1 | > 25 | –
CSc1ccc(NC(=O)[C@H](Cc2ccc(OCc3ccccc3)cc2)NC(=O)[C@H]2CC[C@H](CN)CC2)cc1 [compound 29] | 1.1 | 3.1 | 330 | 0.35 | > 50 | 3.1 | > 25 | – | – | –
COc1ccc(C[C@H](NC(=O)[C@H]2CC[C@H](CN)CC2)C(=O)Nc2ccc(C(C)=O)cc2)cc1 [Compound No. 6, N-(trans-4-aminomethylcyclohexylcarbonyl)-4-methoxy-L-phenylalanine 4-acetylanilide] | 2 | 1.3 | 42 | 4.6 | 230 | 1.1 | > 500 | – | – | –
NC[C@H]1CC[C@H](C(=O)N[C@@H](Cc2ccc(OCc3ccccc3)cc2)C(=O)Nc2cccc(Cl)c2)CC1 [compound 36] | 1.2 | 1.7 | 100 | 0.41 | – | 0.82 | > 50 | – | – | > 125

Further lines, results first:

IC50 [1] [µM] | IC50 [2] [µM] | IC50 [3] [µM] | IC50 [4] [µM] | IC50 [5, 8] [µM] | IC50 [6] [µM] | IC50 [7] [µM] | IC50 [2, 9] [µM] | IC50 [7, 10] [µM] | IC50 [5] [µM] | Compound
0.078 | 0.39 | 26 | 0.28 | 95 | 0.71 | > 50 | – | – | – | CC(=O)c1ccc(NC(=O)C(Cc2ccc(Oc3cc(Cl)ccc3[N+](=O)[O-])cc2)NC(=O)C2CCC(CN)CC2)cc1 (stereo not drawn) [compound 123]
1.4 | 4.6 | 45 | 3.3 | 730 | 0.73 | > 500 | – | – | – | C=CCOc1ccc(C[C@H](NC(=O)[C@H]2CC[C@H](CN)CC2)C(=O)Nc2ccc(C(C)=O)cc2)cc1 [compound 57]
> 200 | 220 | > 200 | 210 | > 400 | 450 | > 400 | – | – | – | NCc1ccc(C(=O)N[C@@H](Cc2ccc(OCc3ccccc3)cc2)C(=O)N2CCN(C(=O)c3ccccc3)CC2)cc1 [compound 73]
0.43 | 1.1 | 34 | 0.31 | > 200 | 1 | > 50 | – | – | – | CC(=O)c1ccc(NC(=O)[C@H](Cc2ccc(OCc3cccc(C#N)c3)cc2)NC(=O)[C@H]2CC[C@H](CN)CC2)cc1 [Compound No. 122, N-(trans-4-aminomethylcyclohexylcarbonyl)-4-(3-cyanobenzyloxy)-L-phenylalanine 4-acetylanilide hydrochloride]
0.18 | 0.95 | 19 | 0.43 | 280 | 0.24 | > 200 | – | – | – | CC(=O)c1ccc(NC(=O)[C@H](Cc2ccc(Oc3ccc([N+](=O)[O-])cn3)cc2)NC(=O)[C@H]2CC[C@H](CN)CC2)cc1 [Compound No. 121, N-(trans-4-aminomethylcyclohexylcarbonyl)-4-(5-nitro-2-pyridyloxy)-L-phenylalanine 4-acetylanilide hydrochloride]
40 | – | > 200 | 2.6 | > 50 | 2.5 | – | 4.2 | > 50 | – | CCOC(=O)C1CCCC(NC(=O)[C@H](Cc2ccc(OCc3ccc(F)cc3)cc2)NC(=O)c2ccc(CN)cc2)C1 (stereo partly drawn) [compound 105]
0.42 | 1.4 | 40 | 0.18 | > 125 | 0.67 | > 250 | – | – | – | NC[C@H]1CC[C@H](C(=O)N[C@@H](Cc2ccc(OCc3ccccc3)cc2)C(=O)Nc2ccnc(Cl)c2)CC1 [Compound No. 59, N-(trans-4-aminomethylcyclohexylcarbonyl)-4-benzyloxy-L-phenylalanine 4-(2-chloro)pyridylamide hydrochloride]
